The values below come from PubChem BioAssay (NCI).

This assay concerns MDA-MB-468 breast. The assay can be described thus: NCI-60 cell line screen, 48 h.

The structures appear in SMILES notation. Values joined by “and” are separate entries in the source; they are usually repeats but may differ in a detail not shown here. Equal entries are not always repeated.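 How tested: cells in 96-well plates exposed to compound for 48 hours at five concentrations. The concentration for 50% growth inhibition is given as GI50. At the TGI there is no net growth.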

For `COc1ccc(-c2cncn2-c2ccc(-c3nc4cc(OC)c(OC)c(OC)c4s3)cc2)cc1N`, the GI50 was 8600 nM and the TGI was above 100000 nM. `COC(=O)[C@]12CC[C@@H](C)[C@H](C)[C@@H]1C1=CC[C@@H]3[C@@]4(C)C(C=O)=C[C@@](C)(COC(=O)c5ccco5)C4=CC[C@@]3(C)[C@]1(C)CC2`: the GI50 was 54.2 nM and the TGI was 1940 nM.

Take `CC[C@H](C)C(=O)O[C@H]1C[C@@H](C)C=C2C=C[C@H](C)[C@H](CC[C@@H]3C[C@@H](O)CC(=O)O3)[C@H]21`: the GI50 was 2030 nM and 2840 nM; the TGI is 14600 nM and 14800 nM. `CN1CCC(n2cnc(-c3ccc(F)cc3)c2-c2ccnc(Nc3ccccc3)n2)CC1`: the GI50 is 3030 nM and the TGI came to 10400 nM.

For `CCN(CC)CCC(CNc1c(C)cnc2cc(Cl)ccc12)c1ccc(Cl)c(Cl)c1` (configuration not stated), the GI50 is 2060 nM and the TGI stood at 4640 nM. For `CCCCc1n(Cc2ccc3ccccc3n2)cc[n+]1Cc1ccc2ccccc2c1` the same measures were 216 nM and 903 nM. With `O=C(C[n+]1ccn(CC(OCc2ccc(Cl)cc2Cl)c2ccc(Cl)cc2Cl)c1)c1ccc(F)cc1` (configuration not stated), the GI50 is 732 nM and the TGI stood at 2200 nM.

`CCC1C[N+]2=C(c3cc(OC)c(OC)cc3CC2)c2c1cc1n2CCc2cc(OC)c(OC)cc2-1` (configuration not stated): the GI50 was 402 nM and the TGI is 5490 nM. In the same order, the values of `O=C(Cc1ccc(-c2ccc(OCCN3CCOCC3)cc2)cn1)NCc1ccccc1` are 24.6 nM and above 3570 nM. In the same order, the values of `COc1ccc2cn3c4ccc(O)cc4[nH]c(=O)c3c2c1` are 195 nM and 678 nM. In the same order, the values of `CSc1ccc(/C(=N/N=C(N)N)c2ccc(Cl)cc2)cc1` are 369 nM and 1500 nM.

`Fc1cccc(-c2nc(-c3c[nH]c4ncccc34)cs2)c1`: the GI50 was above 100000 nM and the TGI was above 100000 nM. For the molecule `COc1ccc(/C=C2/C(=O)N(/C=C3\C(=O)Oc4ccccc4C3=O)C(=NC(C)=O)N2C)cc1OC`, the GI50 is above 100000 nM and the TGI is above 100000 nM.

As for `O=C1CCCc2cc3c(cc21)CC1(C3)Cc2cc3c(cc2C1)C(=O)CCC3`, the GI50 is 2920 nM and the TGI turned out to be 62700 nM. In the same order, the values of `COc1ncc(-c2ccc3ncnc(Nc4cccc(Cl)c4)c3c2)cc1NS(C)(=O)=O` are 211 nM and 913 nM. Take `Cc1cc(O)cc(-c2nn(C)cc2-c2cc(N3CCOCC3)nc(-c3cccnc3)n2)c1`: the GI50 is 1310 nM and the TGI turned out to be 5630 nM.

Turning to `C=C(C)[C@@H]1CC[C@]2(COC(=O)c3ccccc3C(=O)O)CC[C@]3(C)[C@H](CC[C@@H]4[C@@]5(C)CC[C@H](OC(=O)c6ccccc6C(=O)O)C(C)(C)[C@@H]5CC[C@]43C)[C@@H]12`, the GI50 was 29800 nM and the TGI was above 100000 nM. For `Cc1nc2sc(C(=O)Nc3cccc(Cl)c3C)c(N)c2cc1C(O)c1ccccc1` (configuration not stated) the same measures were 38.8 nM and 16900 nM. `C=CC(=O)N1CCC(CNc2ncnc(N)c2-c2ccc(Oc3ccccc3)cc2)CC1`: the GI50 was 7290 nM and the TGI is 55700 nM. For `COC(=O)C(Br)(C(=O)OC)C(Br)C(Br)C(Br)c1ccccc1` (configuration not stated) the same measures were 1650 nM and 3530 nM. Consider `CCN(CC)CCOc1ccccc1-n1c(C)ccc1-c1ccccc1`, for which the GI50 was 10000 nM and the TGI stood at 24400 nM.

Turning to `CCCCCCNC(=O)Oc1ccc(/C(=C(/C)c2ccccc2)c2ccc(OCCN3CCCCCC3)cc2)cc1`, the GI50 was 4900 nM and the TGI stood at 19500 nM. As for `CCN1Cc2c(/C=C/c3ccccc3)nc3ccc(OC)cc3c2N(c2cccc(Cl)c2)C1`, the GI50 was 1900 nM and the TGI is 3670 nM.

For the molecule `NCCNc1nc2ccc(F)cc2c2c(=O)c3cc(F)ccc3sc12`, the GI50 was 1790 nM and the TGI turned out to be 3340 nM. Take `COc1ccc(C(=O)c2cc(C)c(OC)c(C)c2)c(OC)c1OC(=O)C(Cl)Cl`: the GI50 is 398 nM. Regarding `COc1ccc2c(ccc3oc([N+](=O)[O-])cc32)c1`, the GI50 was 121 nM and the TGI was 338 nM.

Take `CCc1cccc2c3c(sc12)C(c1ccc(OC)cc1)C(C#N)=C(/N=C/c1ccc(Cl)cc1)O3` (configuration not stated): the GI50 is 1930 nM and the TGI was determined as 6680 nM. Regarding `Nc1ncc(-c2ccc3ncnc(N4CCc5cc(F)c(F)cc54)c3c2)cn1`, the GI50 is 1890 nM and the TGI stood at 7790 nM. As for `CS(=O)(=O)Nc1cccc(-c2ccc3ncnc(Nc4cncc(Cl)c4)c3c2)c1`, the GI50 was 133 nM and the TGI was 550 nM. `COc1cc(NC(=O)c2cc3ccccc3cc2O)c(OC)cc1Cl`: the GI50 was 2510 nM and the TGI was determined as 8110 nM. In the same order, the values of `N#CC1=C(N)Oc2c(ccc3cccnc23)C1c1ccccc1` (configuration not stated) are 270 nM and 916 nM.

With `COC(=O)C[C@@H]1CC=CC(=O)/C1=C(O)/C=C/c1ccccc1`, the GI50 is 666 nM and the TGI was 2150 nM. Regarding `CC(=O)OCCC/C(=C/c1cc2ccccc2c2ccccc12)[N+](=O)[O-]`, the GI50 was 291 nM and the TGI came out at 1060 nM. For `COc1ccc(/C=N/C2=NNC(C)(c3ccccc3O)N2C(Cc2c[nH]c3ccccc23)C(=O)O)cc1` (configuration not stated), the GI50 is 2210 nM and the TGI is 7340 nM. Turning to `O=C1Nc2cc(-c3ccc(O)cc3)ccc2/C1=C/c1ccc[nH]1`, the GI50 was 123 nM and the TGI came to 756 nM. `O=C(Oc1c(Cl)c(Cl)c(Cl)c(Cl)c1Cl)C1CCCN1C(=O)OCc1ccccc1` (configuration not stated): the GI50 was 2900 nM and the TGI is 12600 nM.

Consider `Cc1ccc(Nn2c(SCC(=O)Nc3nc(-c4ccccc4)cs3)nc(C)c2C)cc1`, for which the GI50 was 1700 nM and the TGI stood at 6670 nM.

Turning to `CC1(C)CC(C(=O)OCCCCCCCCCCC[P+](c2ccccc2)(c2ccccc2)c2ccccc2)C(C)(C)N1O` (configuration not stated), the GI50 is 87.5 nM and the TGI amounted to 637 nM. In the case of `O=c1[nH]c(=O)n(C2CC(O)C(CO)O2)cc1F` (configuration not stated), the GI50 is 250 nM and the TGI worked out at 20600 nM. Take `CN1CCN(c2ccc(NC(=O)c3cncnc3Nc3ccc4c(ccn4Cc4cccc(F)c4)c3)cc2)CC1`: the GI50 was 1910 nM and the TGI stood at 6920 nM. In the same order, the values of `O=C(N/N=C\c1ccc([N+](=O)[O-])cc1)c1ccc2nc(-c3ccc(Br)cc3)[nH]c2c1` are 856 nM and 2060 nM.

Regarding `Nc1n[nH]c2cc(F)c([C@@H]3Nc4c(F)cc5[nH]ncc5c4[C@H]4C5CCC(C5)[C@@H]34)cc12` (some centres not stated), the GI50 is 86 nM and the TGI was 250 nM. In the case of `CCN1C(=O)N[C@H]2[C@@H]3NC(=O)c4ccc(Cl)n4[C@@H]3C[C@]21O`, the GI50 was 229 nM and the TGI was found to be 1080 nM. Take `NC1=C(/C(N)=N/O)C(c2ccccc2)c2ccc3ccccc3c2O1` (configuration not stated): the GI50 is 2130 nM and the TGI was above 60000 nM. Take `NC1=CC(=O)C(=O)c2ccccc21`: the GI50 is 13200 nM and the TGI stood at 28500 nM. On to `COc1ccc(-n2nc(C(=O)NCC(=O)Nc3nc4cc(OC)ccc4s3)c3ccccc3c2=O)cc1`, for which the GI50 is 846 nM.

For `Nc1nc(N)c2cc(S(=O)(=O)c3ccccc3)ccc2n1`, the GI50 was 8010 nM and the TGI was above 100000 nM.
